Data as given in US20100137313A1 (ASTRAZENECA AB, priority 2008, published 2010).

Biological target: S. pneumoniae Topoisomerase IV ATPase (ParE) (Streptococcus pneumoniae serotype 4, UniProt Q59961)
Test: S. pneumoniae Topoisomerase IV ATPase inhibition
Type: biochemical
Conditions: values marked * are an average of two or more data points, read-out: % Inh (13 μM) of S. pneumoniae Topoisomerase IV ATPase
In short: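 ParE ATPase (1.25 nM) run with 160 μM ATP and 5 μg/ml sheared salmon sperm DNA in Tris pH 8.0, Mg2+, glycerol, DTT, Brij-35. Phosphate released read by malachite green/molybdate absorbance at 650 nm. IC50 from 10 compound concentrations; DMSO (2%) as 0% and EDTA (20 μM) as 100% inhibition.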

Chain of S. pneumoniae Topoisomerase IV ATPase (ParE) (Q59961 whole entry): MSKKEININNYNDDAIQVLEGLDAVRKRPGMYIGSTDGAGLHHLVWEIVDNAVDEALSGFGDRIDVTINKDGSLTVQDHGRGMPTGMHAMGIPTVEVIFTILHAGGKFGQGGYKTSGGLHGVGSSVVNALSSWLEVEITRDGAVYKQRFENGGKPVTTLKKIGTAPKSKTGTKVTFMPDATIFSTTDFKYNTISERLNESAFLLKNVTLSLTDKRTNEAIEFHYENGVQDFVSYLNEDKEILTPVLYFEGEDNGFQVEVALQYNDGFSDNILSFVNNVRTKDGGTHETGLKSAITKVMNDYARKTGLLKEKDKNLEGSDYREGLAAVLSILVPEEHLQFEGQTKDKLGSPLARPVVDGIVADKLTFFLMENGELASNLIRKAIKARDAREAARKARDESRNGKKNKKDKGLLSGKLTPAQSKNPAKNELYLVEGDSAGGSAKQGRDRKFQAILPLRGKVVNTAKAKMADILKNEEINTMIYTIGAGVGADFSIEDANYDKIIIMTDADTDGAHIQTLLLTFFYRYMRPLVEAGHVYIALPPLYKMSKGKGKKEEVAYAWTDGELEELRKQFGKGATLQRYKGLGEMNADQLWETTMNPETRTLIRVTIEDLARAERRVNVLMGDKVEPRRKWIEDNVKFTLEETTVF

SMILES | inhibition at 13 µM [%]
O=C(O)c1cncc(-c2cnc(Nc3ccc(F)c(Cl)c3)nc2-n2nccn2)c1 [Example 317, 5-{4-(2H-1,2,3-triazol-2-yl)-2-[(3-chloro-4-fluorophenyl)amino]pyrimidin-5-yl}pyridine-3-carboxylic acid] | 84.9
COc1cc(Nc2ncc(-c3cnc(SC)c(C(=O)NS(C)(=O)=O)c3)c(-n3ccc(C(F)(F)F)n3)n2)cc(OC)c1 [Example 852, 5-{2-[(3,5-dimethoxyphenyl)amino]-4-[3-(trifluoromethyl)-1H-pyrazol-1-yl]pyrimidin-5-yl}-2-(methylsulfanyl)-N-(methylsulfonyl)pyridine-3-carboxamide] | 100
CC(=O)NCCCNc1nc(Nc2ccc(F)c(Cl)c2)ncc1-c1cncnc1 [Example 377, N-(3-(2-(3-chloro-4-fluorophenylamino)-5,5′-bipyrimidin-4-ylamino)propyl)acetamide] | 78.9
Cc1cc(C)cc(Nc2ncc(-c3cnc(OCCS(C)(=O)=O)c(C(=O)O)c3)c(-n3ccc(C(F)(F)F)n3)n2)c1 [Example 964] | 40
CCNC(=O)c1cncc(-c2cnc(Nc3ccc(F)c(Cl)c3)nc2-n2ccc(C(F)(F)F)n2)c1 [Example 1125, 5-[2-[(3-chloro-4-fluorophenyl)amino]-4-[3-(trifluoromethyl)pyrazol-1-yl]pyrimidin-5-yl]-N-ethylpyridine-3-carboxamide] | 51
O=C(O)/C=C/c1cccc(-c2cnc(Nc3ccc(F)c(Cl)c3)nc2-n2cccn2)c1 [Example 1120, (E)-3-[3-[2-[(3-chloro-4-fluorophenyl)amino]-4-pyrazol-1-ylpyrimidin-5-yl]phenyl]prop-2-enoic acid] | 79
COc1cc(Nc2ncc(-c3cccc(/C=C/C(=O)O)c3)c(N3CCOCC3)n2)cc([N+](=O)[O-])c1 [Example 453] | 92
COc1cc(-c2cnc(Nc3ccc(F)c(Cl)c3)nc2NCCCN(C)C)cc(OC)c1OC [Example 10, N^2-(3-chloro-4-fluorophenyl)-N^4-(3-(dimethylamino)propyl)-5-(3,4,5-trimethoxyphenyl)pyrimidin-2,4-diamine] | 99.3
COc1cc(Nc2ncc(-c3cnc(OC)c(C(=O)O)c3)c(-n3nc(C(F)(F)F)cc3C)n2)cc(OC)c1 [Example 677, 5-{2-[(3,5-dimethoxyphenyl)amino]-4-[5-methyl-3-(trifluoromethyl)-1H-pyrazol-1-yl]pyrimidin-5-yl}-2-methoxypyridine-3-carboxylic acid] | 100
COc1cccc(-c2cnc(Nc3ccc(F)c(Cl)c3)nc2NCCCN(C)C)c1 [Example 26, N^2-(3-chloro-4-fluorophenyl)-N^4-[3-(dimethylamino)propyl]-5-(3-methoxyphenyl)-pyrimidine-2,4-diamine] | 91.7
O=C(O)c1cc2cc(-c3cnc(Nc4ccc(F)c(Cl)c4)nc3N3CCOCC3)ccc2s1 [Example 306, 5-(2-(3-chloro-4-fluorophenylamino)-4-morpholinopyrimidin-5-yl)benzo[b]thiophene-2-carboxylic acid] | 84.8
CONC(=O)c1cc(-c2cnc(Nc3cc(OC)cc(OC)c3)nc2-n2ccc(C(F)(F)F)n2)cnc1OC [Example 811, 5-{2-[(3,5-dimethoxyphenyl)amino]-4-[3-(trifluoromethyl)-1H-pyrazol-1-yl]pyrimidin-5-yl}-N,2-dimethoxypyridine-3-carboxamide] | 100
CC(C)OCCNc1nc(Nc2ccc(F)c(Cl)c2)ncc1-c1cncnc1 [Example 52, N^2-(3-chloro-4-fluorophenyl)-N4-(2-propan-2-yloxyethyl)-5-pyrimidin-5-ylpyrimidine-2,4-diamine] | 69.5
Cc1cc(-c2nccs2)nn1-c1nc(Nc2ccc(F)c(Cl)c2)ncc1-c1cncc(C(N)=O)c1 [Example 537, 5-{2-[(3-chloro-4-fluorophenyl)amino]-4-[5-methyl-3-(1,3-thiazol-2-yl)-1H-pyrazol-1-yl]pyrimidin-5-yl}pyridine-3-carboxamide] | 100
Cc1cc(C(F)(F)F)nn1-c1nc(Nc2ccc(F)c(Cl)c2)ncc1-c1cc(C(=O)O)c(=O)n(CCN2CCN(C(C)C)CC2)c1 [Example 1090, 5-(2-(3-chloro-4-fluorophenylamino)-4-(5-methyl-3-(trifluoromethyl)-1H-pyrazol-1-yl)pyrimidin-5-yl)-1-(2-(4-isopropylpiperazin-1-yl)ethyl)-2-oxo-1,2-dihydropyridine-3-carboxylic acid] | 100
CN(C)CCCNc1nc(Nc2ccc(F)c(Cl)c2)ncc1-c1ccc(C(=O)N(C)C)cc1 [Example 364, 4-(2-(3-chloro-4-fluorophenylamino)-4-(3-(dimethylamino)propylamino)pyrimidin-5-yl)-N,N-dimethylbenzamide] | 112

SMILES | inhibition at 13 µM [%]
Cn1ccnc1COc1ncc(-c2cnc(Nc3ccc(F)c(Cl)c3)nc2-n2ccc(C(F)(F)F)n2)cc1C(=O)O [Example 961, 5-(2-(3-chloro-4-fluorophenylamino)-4-(3-(trifluoromethyl)-1H-pyrazol-1-yl)pyrimidin-5-yl)-2-((1-methyl-1H-imidazol-2-yl)methoxy)nicotinic acid] | 100
CS(=O)(=O)CCOc1ncc(-c2cnc(Nc3ccc(F)c(Cl)c3)nc2-n2ccc(C(F)(F)F)n2)cc1C(=O)O [Example 966, 5-(2-(3-chloro-4-fluorophenylamino)-4-(3-(trifluoromethyl)-1H-pyrazol-1-yl)pyrimidin-5-yl)-2-(2-(methylsulfonyl)ethoxy)nicotinic acid] | 100
COc1cc(C)cc(Nc2ncc(-c3cnc(OC)c(C(=O)O)c3)c(-n3nc(C(F)(F)F)cc3C)n2)c1 [Example 761, 2-methoxy-5-{2-[(3-methoxy-5-methylphenyl)amino]-4-[5-methyl-3-(trifluoromethyl)-1H-pyrazol-1-yl]pyrimidin-5-yl}pyridine-3-carboxylic acid] | 100
CS(=O)(=O)c1cc(Nc2ncc(-c3cccc(/C=C/C(=O)O)c3)c(-n3ccc(C(F)(F)F)n3)n2)ccc1F [Example 1115, (E)-3-(3-(2-(4-fluoro-3-(methylsulfonyl)phenylamino)-4-(3-(trifluoromethyl)-1H-pyrazol-1-yl)pyrimidin-5-yl)phenyl)acrylic acid] | 93
O=C(O)/C=C/c1cccc(-c2cnc(Nc3ccc(F)c(Cl)c3)nc2-n2nnc3ccccc32)c1 [Example 325, (2E)-3-(3-{4-(1H-benzotriazol-1-yl)-2-[(3-chloro-4-fluorophenyl)amino]pyrimidin-5-yl}phenyl) prop-2-enoic acid] | 102
COc1cccc(Nc2ncc(-c3cccc(/C=C/C(=O)O)c3)c(N3CCOCC3)n2)c1 [Example 451] | 70
Cc1cc(C(F)(F)F)nn1-c1nc(Nc2ccc(F)c(Cl)c2)ncc1-c1cncnc1 [Example 70, N-(3-chloro-4-fluorophenyl)-4-[5-methyl-3-(trifluoromethyl)-1H-pyrazol-1-yl]-5,5′-bipyrimidin-2-amine] | 86.6
COc1ncc(-c2cnc(Nc3cc(C)ccc3F)nc2-n2ccc(C(F)(F)F)n2)cc1C(=O)O [Example 756, 5-{2-[(2-fluoro-5-methylphenyl)amino]-4-[3-(trifluoromethyl)-1H-pyrazol-1-yl]pyrimidin-5-yl}-2-methoxypyridine-3-carboxylic acid] | 56
CN(C)CCCNc1nc(Nc2ccc(F)c(Cl)c2)ncc1-c1ccc(C(=O)N2CCCCC2)s1 [Example 369, (5-(2-(3-chloro-4-fluorophenylamino)-4-(3-(dimethylamino)propylamino)pyrimidin-5-yl)thiophen-2-yl) (piperidin-1-yl) methanone] | 122
O=C(O)c1cncc(-c2cnc(Nc3ccc(F)c(Cl)c3)nc2-n2cnc(Cl)c2Cl)c1 [Example 327, 5-{2-[(3-chloro-4-fluorophenyl)amino]-4-(4,5-dichloro-1H-imidazol-1-yl)pyrimidin-5-yl}pyridine-3-carboxylic acid] | 99
COc1cc(Nc2ncc(-c3cnc(OC)c(C(=O)NS(=O)(=O)C4=CCS(=O)(=O)C4)c3)c(-n3nc(C(F)(F)F)cc3C)n2)cc(OC)c1 [Example 840, 5-{2-[(3,5-dimethoxyphenyl)amino]-4-[5-methyl-3-(trifluoromethyl)-1H-pyrazol-1-yl]pyrimidin-5-yl}-N-[(1,1-dioxido-2,5-dihydrothiophen-3-yl)sulfonyl]-2-methoxypyridine-3-carboxamide] | 99
O=C(O)c1cncc(-c2cnc(Nc3ccc(F)c(Cl)c3)nc2N2CCC(F)CC2)c1 [Example 248, 5-[2-[(3-chloro-4-fluorophenyl)amino]-4-(4-fluoropiperidin-1-yl)pyrimidin-5-yl]pyridine-3-carboxylic acid] | 66.1
COCCN1CCN(c2nc(Nc3ccc(F)c(Cl)c3)ncc2-c2cccc(/C=C/C(=O)O)c2)CC1 [Example 300, (E)-3-(3-(2-(3-chloro-4-fluorophenylamino)-4-(4-(2-methoxyethyl)piperazin-1-yl)pyrimidin-5-yl)phenyl)acrylic acid] | 82.3
CCCS(=O)(=O)NC(=O)c1cc(-c2cnc(Nc3cc(OC)cc(OC)c3)nc2-n2nc(C(F)(F)F)cc2C)cnc1OC [Example 817, 5-{2-[(3,5-dimethoxyphenyl)amino]-4-[5-methyl-3-(trifluoromethyl)-1H-pyrazol-1-yl]pyrimidin-5-yl}-2-methoxy-N-(propylsulfonyl)pyridine-3-carboxamide] | 100
COCCn1cc(-c2cnc(Nc3cc(OC)cc(OC)c3)nc2-n2nc(C(F)(F)F)cc2C)cc(C(=O)NS(C)(=O)=O)c1=O [Example 1161, 5-(2-(3,5-dimethoxyphenylamino)-4-(5-methyl-3-(trifluoromethyl)-1H-pyrazol-1-yl)pyrimidin-5-yl)-1-(2-methoxyethyl)-N-(methylsulfonyl)-2-oxo-1,2-dihydropyridine-3-carboxamide] | 81
